According to the supplement of paper PMC10307832:

Legend:
Test in all cases: relative viability (nuclei count vs DMSO), 5 days (fraction); higher = more cells survive
Quizartinib + AZD7762 = compound: CC(C)(C)c1cc(NC(=O)Nc2ccc(-c3cn4c(n3)sc3cc(OCCN5CCOCC5)ccc34)cc2)no1 [Quizartinib] + NC(=O)Nc1cc(-c2cccc(F)c2)sc1C(=O)N[C@H]1CCCNC1 [AZD7762] (partner 0.2 µM)
Method in brief: (§1)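 Relative viability equals treated-well nuclei counts divided by vehicle-well nuclei counts. Counts came from 4× images of lung cancer cell lines grown in 1536-well plates for 5 days after pin-tool dosing on the day after seeding. Dosing used one drug alone or a fixed anchor-drug dose plus five library-drug doses (not always all listed) in √10 steps, and values are medians of duplicate plates.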

[1] = compound: CC(C)(C)c1cc(NC(=O)Nc2ccc(-c3cn4c(n3)sc3cc(OCCN5CCOCC5)ccc34)cc2)no1 [Quizartinib] + CC(=O)c1c(C)c2cnc(Nc3ccc(N4CCNCC4)cn3)nc2n(C2CCCC2)c1=O [Palbociclib] (partner 0.5 µM)
Method in brief: as §1

Quizartinib + Luminespib = compound: CC(C)(C)c1cc(NC(=O)Nc2ccc(-c3cn4c(n3)sc3cc(OCCN5CCOCC5)ccc34)cc2)no1 [Quizartinib] + CCNC(=O)c1noc(-c2cc(C(C)C)c(O)cc2O)c1-c1ccc(CN2CCOCC2)cc1 [Luminespib] (partner 0.01 µM)
Method in brief: as §1

YM155 + Palbociclib = compound: COCC[n+]1c2c(n(Cc3cnccn3)c1C)C(=O)c1ccccc1C2=O [YM155] + CC(=O)c1c(C)c2cnc(Nc3ccc(N4CCNCC4)cn3)nc2n(C2CCCC2)c1=O [Palbociclib] (partner 0.5 µM)
Method in brief: as §1

| Cell Line | relative viability (Quizartinib + AZD7762; first compound 0.001 µM) | relative viability (Quizartinib + AZD7762; first compound 0.003162 µM) | relative viability (Quizartinib + AZD7762; first compound 0.01 µM) | relative viability (Quizartinib + AZD7762; first compound 0.03162 µM) | relative viability (Quizartinib + AZD7762; first compound 0.1 µM) | relative viability ([1]; first compound 0.001 µM) | relative viability ([1]; first compound 0.003162 µM) | relative viability ([1]; first compound 0.01 µM) | relative viability ([1]; first compound 0.03162 µM) | relative viability ([1]; first compound 0.1 µM) | relative viability (Quizartinib + Luminespib; first compound 0.001 µM) | relative viability (Quizartinib + Luminespib; first compound 0.003162 µM) | relative viability (Quizartinib + Luminespib; first compound 0.01 µM) | relative viability (Quizartinib + Luminespib; first compound 0.03162 µM) | relative viability (Quizartinib + Luminespib; first compound 0.1 µM) | relative viability (YM155 + Palbociclib; first compound 0.002 µM) | relative viability (YM155 + Palbociclib; first compound 0.006325 µM) | relative viability (YM155 + Palbociclib; first compound 0.02 µM) | relative viability (YM155 + Palbociclib; first compound 0.06325 µM) |
| --- | --- | --- | --- | --- | --- | --- | --- | --- | --- | --- | --- | --- | --- | --- | --- | --- | --- | --- | --- |
| NCI-H1437 | 0.944 | 1.05 | 1.17 | 1.04 | 0.943 | 0.298 | 0.288 | 0.32 | 0.299 | 0.261 | 1.01 | 1.07 | 1.09 | 0.782 | 0.982 | 0.245 | 0.329 | 0.309 | 0.298 |
| NCI-H1651 | 0.473 | 0.346 | 0.508 | 0.416 | 0.466 | 0.456 | 0.479 | 0.54 | 0.517 | 0.566 | 0.811 | 0.794 | 0.913 | 0.599 | 0.92 | 0.548 | 0.519 | 0.494 | 0.53 |
| NCI-H1666 | 0.851 | 0.803 | 0.888 | 0.8 | 0.99 | 0.618 | 0.66 | 0.683 | 0.638 | 0.637 | 0.977 | 1.05 | 1.02 | 0.789 | 1.03 | 0.616 | 0.701 | 0.651 | 0.611 |
| NCI-H1734 | 0.736 | 0.54 | 0.603 | 0.522 | 0.628 | 0.277 | 0.338 | 0.349 | 0.341 | 0.347 | 0.16 | 0.257 | 0.188 | 0.178 | 0.197 | 0.362 | 0.313 | 0.374 | 0.345 |
| NCI-H1755 | 0.486 | 0.392 | 0.489 | 0.526 | 0.434 | 0.418 | 0.451 | 0.471 | 0.446 | 0.41 | 0.473 | 0.243 | 0.555 | 0.459 | 0.39 | 0.439 | 0.478 | 0.456 | 0.453 |
| NCI-H1792 | 0.547 | 0.654 | 0.691 | 0.496 | 0.604 |  | 0.654 | 0.702 | 0.617 | 0.66 |  | 0.484 | 0.452 | 0.321 | 0.444 | 0.628 | 0.685 | 0.638 | 0.665 |
| NCI-H1793 | 0.483 | 0.414 | 0.451 | 0.409 | 0.259 | 0.331 | 0.277 | 0.33 | 0.329 | 0.34 | 0.161 | 0.171 | 0.467 | 0.174 | 0.159 | 0.292 | 0.324 | 0.323 | 0.304 |
| NCI-H1915 | 0.683 | 0.613 | 0.646 | 0.694 | 0.721 | 0.507 | 0.433 | 0.482 | 0.552 | 0.474 | 0.786 | 0.714 | 0.828 | 0.829 | 0.815 | 0.494 | 0.533 | 0.539 | 0.552 |
| NCI-H1944 | 0.493 | 0.414 | 0.48 | 0.57 | 0.527 | 0.345 | 0.306 | 0.293 | 0.35 | 0.294 | 0.757 | 0.804 | 0.774 | 0.727 | 0.722 | 0.337 | 0.296 | 0.328 | 0.325 |
| NCI-H1975 | 0.729 | 0.721 | 0.743 | 0.587 | 0.651 | 0.588 | 0.605 | 0.599 | 0.552 | 0.538 | 0.166 | 0.273 | 0.164 | 0.212 | 0.202 | 0.463 | 0.531 | 0.643 | 0.259 |
| NCI-H1993 | 0.759 | 0.699 | 0.87 | 0.672 | 0.914 | 0.673 | 0.58 | 0.67 | 0.633 | 0.825 | 0.862 | 1.03 | 0.965 | 0.844 | 0.692 | 0.557 | 0.657 | 0.554 | 0.43 |
| NCI-H2085 | 0.861 | 0.9 | 1.04 | 0.87 | 0.596 | 0.407 | 0.486 | 0.444 | 0.453 | 0.388 | 0.403 | 0.391 | 0.454 | 0.419 | 0.393 | 0.436 | 0.441 | 0.469 | 0.375 |
| NCI-H2087 | 1.13 | 1.15 | 1.26 | 1.38 | 1.3 | 0.233 | 0.225 | 0.316 | 0.218 | 0.229 |  | 0.206 | 0.174 | 0.177 | 0.156 | 0.207 | 0.247 | 0.256 | 0.208 |
| NCI-H2126 | 1.03 | 0.923 | 0.982 | 0.954 | 1.01 | 0.359 | 0.347 | 0.347 | 0.339 | 0.346 | 0.844 | 0.828 | 0.798 |  | 1.11 | 0.354 | 0.369 | 0.369 | 0.369 |
| NCI-H2170 | 0.906 | 0.848 | 0.914 | 0.973 | 1.03 | 0.385 | 0.365 | 0.392 | 0.367 | 0.358 | 0.65 | 0.741 | 0.838 | 0.769 | 0.737 | 0.418 | 0.473 | 0.389 | 0.376 |
| NCI-H2342 | 0.505 | 0.637 | 0.471 | 0.544 | 0.518 | 0.482 | 0.538 | 0.483 | 0.615 | 0.462 | 0.807 | 0.752 | 0.696 | 0.759 | 0.762 | 0.515 | 0.496 | 0.475 | 0.54 |
| NCI-H2347 | 0.728 | 0.696 | 0.799 | 0.768 | 0.749 | 0.405 | 0.43 | 0.379 | 0.428 | 0.434 | 0.335 | 0.51 | 0.41 | 0.495 | 0.624 | 0.422 | 0.399 | 0.389 | 0.37 |
